Results from patent publication US20100178293A1 (priority 2007, published 2010).

Tests used:
[1] = tested on: mouse model for Alzheimer's disease; settings: literature, Lim et al. 2000; cited from earlier work
RML prion = format: in vivo, mice; settings: Example 1; RML prion i.p.; Campath 100 μg i.v.
Tg2576 Tg+ mice = assay: Tg2576 mouse model of Alzheimer's disease (Example 2); format: in vivo; settings: 100 μg i.v. weekly for 6 months
Procedure: Ten-month-old male and female Tg2576 Tg+ and Tg− are used (n=10 animals/group). Tg+ mice are treated with Campath 100 μg i.v. weekly for 6 months or placebo (saline), respectively before being sacrificed. TG− mice served as controls Animals are perfused before brain dissection with 0.9% normal saline followed by HEPES buffer, pH 7.2, containing protease inhibitors. […] Tg+ mice fed chow containing ibuprofen for 6 months serve as positive treatment control.

Compound	plaque pathology and inflammation in a mouse model for Alzheimer's disease [1]	inhibition of the spread of prions in an animal model (RML prion)	activity in a mouse model of Alzheimer's disease (Tg2576 Tg+ mice)
CC(C)Cc1ccc(C(C)C(=O)O)cc1 (stereo not drawn) [Ibuprofen]	suppresses plaque pathology and inflammation		
alemtuzumab [Campath]		can inhibit the spread of prions	active
